Data: PMC4864078, “De Novo Transcriptome Analysis and Detection of Antimicrobial Peptides of the American Cockroach Periplaneta americana (Linnaeus)” (PLoS ONE, 2016)
“Also recorded” adds a separate entry of the source.

Assays:
[1] = system: E. coli (ATCC 11775); assay: Broth microdilution assay (MIC); format: cell-based, Escherichia coli; settings: Mueller-Hinton Broth, 2 × 10^4 CFU/mL, 18 h at 37°C, visible turbidity, complete growth inhibition
Procedure: (§1) The bacterial strains E. coli (KACC 13821, ATCC 11775) and Staphylococcus aureus (KACC 10768, ATCC 25923), and the yeast strain Candida albicans (KCTC 7121, ATCC 14053) were purchased from the Korean Agricultural Culture Collection (KACC) and Korean Collection for Type Cultures (KCTC). Both bacteria and the yeast were cultivated overnight in tryptic soy broth (TSB; Difco, USA) at 200 rpm in a 37°C shaking incubator to the stationary phase. Bacteria were cultivated for 3 h in fresh TSB medium under the same condition to the log phase. The strains were stored with 15% glycerol at −70°C until use.
(§2) In addition, antimicrobial activities of the peptides were also tested by broth microdilution assays against E. coli, S. aureus, and C. albicans. Briefly, microbes were grown overnight in Mueller-Hinton Broth (MHB) to the onset of the stationary phase with shaking at 200 rpm. The cultures were diluted in fresh MHB to a final concentration of 2 × 10^4 CFU/mL. A stock solution of each peptide was prepared to a concentration of 640 μg/mL in 0.01% acetic acid, and was then serially diluted two-fold to reach a concentration of 10 μg/mL. After 90-μL aliquots of the microbial suspension were dispensed into each well of a 96-well polypropylene microtiter plate, 10 μL of the peptide solution was added. The antimicrobial activities of the peptides were assessed by measuring the visible turbidity in each well of the plate after 18 h of incubation at 37°C. Minimum inhibitory concentrations (MICs) are expressed as a specific value that caused complete growth inhibition.

[2] = system: S. aureus (ATCC 25923); assay: Broth microdilution assay (MIC); format: cell-based, Staphylococcus aureus; settings: Mueller-Hinton Broth, 2 × 10^4 CFU/mL, 18 h at 37°C, visible turbidity, complete growth inhibition
Procedure: as §1, §2

[3] = system: C. albicans (ATCC 14053); format: cell-based, Candida albicans; settings: Mueller-Hinton Broth, 2 × 10^4 CFU/mL, 18 h at 37°C, visible turbidity, complete growth inhibition
Procedure: as §1, §2

[4] = system: E. coli; assay: Radial diffusion assay; format: cell-based, Escherichia coli; settings: diameter of growth inhibition zone after 12 h; compared with melittin; repeated three times
Procedure: as §1
(§3) The radial diffusion assay was performed to test the antimicrobial activities of peptides, as described previously with slight modifications. In brief, bacteria and yeast strains were grown to the mid-logarithmic phase in TSB at 37°C and then washed twice with 10 mM Tris-HCl (containing 5 mM glucose, pH 7.4). A total of 4 × 10^6 CFU was added to 10 mL of an underlay agarose gel [0.03% (w/v) TSB, 1% (w/v) agarose (Sigma, USA), and 0.02% (v/v) Tween 20 (Sigma, USA) in 10 mM Tris-HCl]. The underlay gel was poured into a 100-mm INTEGRID^TM Petri dish. After agarose solidification, 3-mm-diameter wells were punched and 5 μL of each peptide solution was added to each well. Buffer alone was used as a negative control. Plates were incubated at 37°C for 3 h to allow for diffusion of the peptides. The underlay gel was then covered with 10 mL of nutrient-rich agar overlay (6% TSB and 1% agarose in 10 mM Tris-HCl). […] This experiment was repeated at least 3 times and the same results were obtained.

[5] = system: C. albicans; assay: Radial diffusion assay; format: cell-based, Candida albicans; settings: diameter of growth inhibition zone after 12 h, repeated three times
Procedure: as §1, §3

[6] = system: Gram-negative bacteria, Gram-positive bacteria, and yeast; assay: Radial diffusion assay, statement over all three microbes; format: cell-based; settings: increased in a dose-dependent manner, cleared zone after 12 h at 37°C
Procedure: as §1, §3

[7] = system: S. aureus; assay: Radial diffusion assay; format: cell-based, Staphylococcus aureus; settings: diameter of growth inhibition zone after 12 h; compared with melittin; repeated three times
Procedure: as §1, §3

[8] = system: rat erythrocytes; assay: Hemolytic assay; format: cell-based; settings: 100 μg/mL, compared to melittin, 30 min at 37°C, A540
Procedure: This experiment was approved by the Institutional Animal Care and Use Committee (IACUC) of the National Academy of Agricultural Sciences (approval number: NAAS-1114). The hemolytic activity of the peptides was determined by monitoring the release of hemoglobin from rat erythrocytes at 540 nm. For the hemolytic assay, 20 μL of each peptide solution at a predetermined concentration was added to 180 μL of a 2.5% (v/v) suspension of rat erythrocytes in phosphate-buffered saline (PBS). Melittin (Sigma, USA), a hemolytic and α-helical peptide isolated from bee venom, was used as the positive control. This mixture was incubated for 30 min at 37°C, and 600 μL of PBS was then added to each tube. After 3 min of centrifugation at 10,000 ×g, the supernatant was […], and the absorbance was measured at 540 nm. Evaluations were made from the results of at least three independent experiments, each carried out in triplicate.

ALQICTRNMIDDRLPYVADNVRPGTFIKQQRKQKQQRHHTSGTRKRMAKG [ISGCock_Contig04_0915, synthetic peptide, AMPA stretch of a predicted novel AMP from a P. americana transcript]
Minimum Inhibitory Concentration (MIC) [1]: 64 µg/mL
Minimum Inhibitory Concentration (MIC) [2]: >64 µg/mL
Minimum Inhibitory Concentration (MIC) [3]: >64 µg/mL
Antimicrobial activity in E. coli (radial diffusion assay) [4]: stronger antimicrobial activity than melittin
Antimicrobial activity against C. albicans (radial diffusion assay) [5]: strong antimicrobial activity
Antimicrobial activity in radial diffusion assay [6]: antimicrobial activity

ANLLRHKVYGYCVLGPKGSSLGGIHGTWHDHHCSLIQRNPSTSTKGN [ISGCock_Contig13_3006, synthetic peptide, AMPA stretch of a predicted novel AMP from a P. americana transcript]
Minimum Inhibitory Concentration (MIC) [1]: 64 µg/mL
Minimum Inhibitory Concentration (MIC) [2]: >64 µg/mL
Minimum Inhibitory Concentration (MIC) [3]: 64 µg/mL
Antimicrobial activity in radial diffusion assay [6]: antimicrobial activity

CNYISFFRKCKNSQSTMYGCHRMNKCVFSSY [ISGCock_Contig07_3736–1, synthetic peptide, first AMPA stretch of a predicted novel AMP from a P. americana transcript]
Minimum Inhibitory Concentration (MIC) [1]: >64 µg/mL
Minimum Inhibitory Concentration (MIC) [2]: >64 µg/mL
Minimum Inhibitory Concentration (MIC) [3]: >64 µg/mL
Antimicrobial activity in radial diffusion assay [6]: antimicrobial activity

HLYPCKLNLKLGKVPFHFLNLNHKGKSIMVNQQTCLYYIICQTR [ISGCock_Contig13_4610–1, synthetic peptide, first AMPA stretch of a predicted novel AMP from a P. americana transcript]
Minimum Inhibitory Concentration (MIC) [1]: 64 µg/mL
Minimum Inhibitory Concentration (MIC) [2]: >64 µg/mL
Minimum Inhibitory Concentration (MIC) [3]: >64 µg/mL
Antimicrobial activity in E. coli (radial diffusion assay) [4]: stronger antimicrobial activity than melittin
Antimicrobial activity in S. aureus (radial diffusion assay) [7]: greater than that of melittin
Antimicrobial activity against C. albicans (radial diffusion assay) [5]: strong antimicrobial activity
Antimicrobial activity in radial diffusion assay [6]: antimicrobial activity
Hemolytic activity [8]: relatively low compared to that of melittin

ISHNHLTAASITHVKNRGKYIYMHLKFRKTNVLI [ISGCock_Contig16_2060, synthetic peptide, AMPA stretch of a predicted novel AMP from a P. americana transcript]
Minimum Inhibitory Concentration (MIC) [1]: 16 µg/mL
Minimum Inhibitory Concentration (MIC) [2]: 16 µg/mL
Minimum Inhibitory Concentration (MIC) [3]: 16 µg/mL
Antimicrobial activity in radial diffusion assay [6]: antimicrobial activity

KRMKLNAKKLSFCDHLNSYLNLSPTLFIHNSSKQWSHWLWHNGIRI [ISGCock_Contig15_1337–1, synthetic peptide, first AMPA stretch of a predicted novel AMP from a P. americana transcript]
Minimum Inhibitory Concentration (MIC) [1]: >64 µg/mL
Minimum Inhibitory Concentration (MIC) [2]: >64 µg/mL
Minimum Inhibitory Concentration (MIC) [3]: 16 µg/mL
Antimicrobial activity in S. aureus (radial diffusion assay) [7]: greater than that of melittin
Antimicrobial activity against C. albicans (radial diffusion assay) [5]: strong antimicrobial activity
Antimicrobial activity against C. albicans (radial diffusion assay) ([5]; listed as Contig15_1337–1): highest antifungal activity of the tested peptides
Antimicrobial activity in radial diffusion assay [6]: antimicrobial activity
Hemolytic activity [8]: relatively low compared to that of melittin

KRMKLNAKKLSFCDHLNSYLNLSPTLFIHNSSKQWSHWLWHNGIRI [ISGCock_Contig15_1337–2, synthetic peptide, second AMPA stretch of a predicted novel AMP from a P. americana transcript]
Minimum Inhibitory Concentration (MIC) [1]: >64 µg/mL
Minimum Inhibitory Concentration (MIC) [2]: >64 µg/mL
Minimum Inhibitory Concentration (MIC) [3]: 64 µg/mL
Antimicrobial activity in E. coli (radial diffusion assay) [4]: stronger antimicrobial activity than melittin; also recorded: highest antimicrobial activity of the tested peptides
Antimicrobial activity in S. aureus (radial diffusion assay) [7]: greater than that of melittin
Antimicrobial activity against C. albicans (radial diffusion assay) [5]: strong antimicrobial activity
Antimicrobial activity in radial diffusion assay [6]: antimicrobial activity
Hemolytic activity [8]: relatively low compared to that of melittin

LMLCKGFLRHSYKSIHERGTKRGKLCRISRLALSSLP [ISGCock_Contig10_4736–2, synthetic peptide, second AMPA stretch of a predicted novel AMP from a P. americana transcript]
Minimum Inhibitory Concentration (MIC) [1]: 16 µg/mL
Minimum Inhibitory Concentration (MIC) [2]: >64 µg/mL
Minimum Inhibitory Concentration (MIC) [3]: 32 µg/mL
Antimicrobial activity in S. aureus (radial diffusion assay) [7]: greater than that of melittin
Antimicrobial activity against C. albicans (radial diffusion assay) [5]: strong antimicrobial activity
Antimicrobial activity in radial diffusion assay [6]: antimicrobial activity

MKTFLRLYRSLINKVLHV [ISGCock_Contig05_0593, synthetic peptide, AMPA stretch of a predicted novel AMP from a P. americana transcript]
Minimum Inhibitory Concentration (MIC) [1]: 4 µg/mL
Minimum Inhibitory Concentration (MIC) [2]: 16 µg/mL
Minimum Inhibitory Concentration (MIC) [3]: 4 µg/mL
Antimicrobial activity in S. aureus (radial diffusion assay) [7]: greater than that of melittin; also recorded: highest antibacterial effect
Antimicrobial activity against C. albicans (radial diffusion assay) [5]: strong antimicrobial activity
Antimicrobial activity in radial diffusion assay [6]: antimicrobial activity

RKKVWFIFHVCPKLKQRILSDTHAKNKCRLSPLLIKSTKIKNET [ISGCock_Contig16_4974, synthetic peptide, AMPA stretch of a predicted novel AMP from a P. americana transcript]
Minimum Inhibitory Concentration (MIC) [1]: 16 µg/mL
Minimum Inhibitory Concentration (MIC) [2]: 16 µg/mL
Minimum Inhibitory Concentration (MIC) [3]: 16 µg/mL
Antimicrobial activity in radial diffusion assay [6]: antimicrobial activity

VVGRKHSILNCIPYLKKKKIMRLVESESIG [ISGCock_Contig12_4176, synthetic peptide, AMPA stretch of a predicted novel AMP from a P. americana transcript]
Minimum Inhibitory Concentration (MIC) [1]: 8 µg/mL
Minimum Inhibitory Concentration (MIC) [2]: >64 µg/mL
Minimum Inhibitory Concentration (MIC) [3]: 8 µg/mL
Antimicrobial activity in S. aureus (radial diffusion assay) [7]: greater than that of melittin
Antimicrobial activity against C. albicans (radial diffusion assay) [5]: strong antimicrobial activity
Antimicrobial activity in radial diffusion assay [6]: antimicrobial activity
Hemolytic activity [8]: relatively low compared to that of melittin
